Results reported in PubChem BioAssay (NCI).
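The compound was tested at five concentrations on cells cultured in 96-well plates, with a 48-hour exposure period. TGI: concentration producing complete growth inhibition.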 Where a SMILES comes first, the peptide text is derived from it. Bridges are numbered along the chain shown (N, C = ends). [ ]: non-standard residue; d: D form. The star is where a group is joined. Cbz = O=C(OCc1ccccc1)*; Aib = CC(C)(N)C(=O)O; OBn = c1ccc(CO*)cc1; βAla = NCCC(=O)O

Legend:
Test in all cases: growth of human tumour cells (NCI), 48 h
[1] = system: OVCAR-8 ovarian
[2] = system: NCI-H23 lung
[3] = system: SF-539 CNS
[4] = system: OVCAR-5 ovarian
[5] = system: SF-295 CNS
[6] = system: RXF 393 renal
[7] = system: CAKI-1 renal
[8] = system: SF-268 CNS
[9] = system: SK-MEL-5 melanoma
[10] = system: MCF7 breast
[11] = system: SK-MEL-2 melanoma
[12] = system: OVCAR-4 ovarian
[13] = system: UACC-62 melanoma
[14] = system: SK-OV-3 ovarian
[15] = system: SK-MEL-28 melanoma
[16] = system: HCT-15 colon
[17] = system: RPMI-8226 leukemia
[18] = system: EKVX NSCLC
[19] = system: T-47D breast

| SMILES | TGI [1] | TGI [2] | TGI [3] | TGI [4] | TGI [5] | TGI [6] | TGI [7] | TGI [8] | TGI [9] | TGI [10] | TGI [11] | TGI [12] | TGI [13] | TGI [14] | TGI [15] | TGI [16] | TGI [17] | TGI [18] | TGI [19] |
| --- | --- | --- | --- | --- | --- | --- | --- | --- | --- | --- | --- | --- | --- | --- | --- | --- | --- | --- | --- |
| CSc1nc(Cl)c2c(n1)Sc1nc3cc4c(cc3n1C2O)OCO4 (stereo not given) | 3.85 µM | > 100 µM | 0.327 µM | > 100 µM | > 83.2 µM | > 51.9 µM | > 100 µM | > 100 µM | 7.49 µM | > 100 µM | > 64.4 µM | > 100 µM | 14.2 µM | > 75.3 µM | > 100 µM | > 100 µM | > 20.8 µM | > 100 µM | > 100 µM |
| COc1ccccc1N1C(=O)/C(=C\c2cccc(Oc3ccccc3)c2)SC1c1ccccc1 (stereo not given) | > 100 µM | 98.1 µM | > 100 µM | > 100 µM | > 100 µM | > 100 µM | > 100 µM | > 100 µM | 32.8 µM | > 100 µM | > 100 µM | > 100 µM | > 100 µM | > 100 µM | > 100 µM | > 100 µM | > 100 µM | > 100 µM | > 100 µM |
| C=CCN1C(=O)/C(=C/c2ccccc2)NC1=S | > 100 µM | > 100 µM | > 100 µM | > 100 µM | > 100 µM | > 100 µM | > 100 µM | > 100 µM | > 100 µM | > 100 µM | > 100 µM | > 100 µM | > 100 µM | > 100 µM | > 100 µM | > 100 µM | > 100 µM | > 100 µM | > 100 µM |
| CC(C)NC(=O)OCc1c(COC(=O)NC(C)C)c(-c2ccc[n+](COC(=O)CC(C)(C)C)c2)n2c1CCC2 | > 100 µM | > 100 µM | > 100 µM | > 100 µM | > 100 µM | > 100 µM | > 100 µM | > 100 µM | > 100 µM | > 100 µM | > 100 µM | > 100 µM | > 100 µM | > 100 µM | > 100 µM | > 100 µM | > 100 µM | > 100 µM | > 100 µM |
| NS(=O)(=O)c1nnc(NC(=O)c2ccccc2)s1 | > 100 µM | > 100 µM | > 100 µM | > 100 µM | > 100 µM | > 100 µM | > 100 µM | > 100 µM | > 100 µM | > 100 µM | > 100 µM | > 100 µM | > 100 µM | > 100 µM | > 100 µM | > 100 µM | > 100 µM | > 100 µM | > 100 µM |
| CC(=O)NNc1nc(C)c(C(/C=C/c2cccc([N+](=O)[O-])c2)=N/NC(=S)NN)s1 | > 100 µM | > 100 µM | > 100 µM | > 100 µM | > 100 µM | > 100 µM | > 100 µM | > 100 µM | > 100 µM | > 100 µM | > 100 µM | > 100 µM | > 100 µM | > 100 µM | > 100 µM | > 100 µM | > 100 µM | > 100 µM | > 100 µM |
| C=C(C)[C@@H](C(=O)OC)N1C(=O)c2ccccc2C1=O | > 100 µM | > 100 µM | > 100 µM | > 100 µM | > 100 µM | > 100 µM | > 100 µM | > 100 µM | > 100 µM | > 100 µM | > 100 µM | > 100 µM | > 100 µM | > 100 µM | > 100 µM | > 100 µM | > 100 µM | > 100 µM | > 100 µM |
| O=C(c1ccccc1)c1c2ccccn2c2cccc[n+]12 | > 100 µM |  | > 100 µM | > 100 µM | > 100 µM | > 100 µM | > 100 µM | > 100 µM | > 100 µM | > 100 µM | > 100 µM | > 100 µM | > 100 µM | > 100 µM | > 100 µM | > 100 µM | > 100 µM | > 100 µM | > 100 µM |
| CC1(C)NC(=O)C(NC(=O)C(CC(=O)OCc2ccccc2)NC(=O)OCc2ccccc2)CCCCNC(=O)CCNC1=O (stereo not given) (Cbz-D(OBn)K[Aib][βAla]; lactam 2-C; configuration not given here) | > 100 µM | > 100 µM | > 100 µM | > 100 µM | > 100 µM | > 100 µM | > 100 µM | > 100 µM | > 100 µM | > 100 µM |  | > 100 µM | > 100 µM | > 100 µM | > 100 µM | > 100 µM | > 100 µM | > 100 µM | > 100 µM |
| CCOC(=O)C(Cl)(NC(=O)c1ccc(F)cc1)C(F)(F)F (stereo not given) | > 100 µM | > 100 µM | > 100 µM | > 100 µM | > 100 µM | > 100 µM | > 100 µM | > 100 µM | > 100 µM | > 100 µM | > 100 µM | > 100 µM |  | > 100 µM | > 100 µM | > 100 µM | > 100 µM | > 100 µM | > 100 µM |
| Clc1ccc2c(NCCCCN=Cc3ccccc3)ccnc2c1 | 32 µM | 25.1 µM | 24.7 µM | 40.4 µM | 28 µM | 16.6 µM |  | 35 µM | 26.5 µM | 28.6 µM | 24.5 µM | 28.1 µM |  | 59.8 µM | 29 µM | 33.1 µM | > 100 µM | 43.7 µM | 45.7 µM |
| CCOC(=O)Cn1sc2ncc([N+](=O)[O-])cc2c1=O | 30.3 µM | 39.3 µM | 38.5 µM | 38 µM | 34.8 µM | 35.4 µM |  | 44.6 µM | 85.3 µM | 35.3 µM | 70.9 µM | 38 µM | 48.4 µM | 34.6 µM | 28.6 µM | 31.2 µM | > 100 µM | > 100 µM | 37.5 µM |
| CO/N=C(\C(=O)Nc1cncs1)c1csc(NC(c2ccccc2)(c2ccccc2)c2ccccc2)n1 | > 10 µM | > 10 µM | > 10 µM | > 10 µM | > 10 µM | > 10 µM | > 10 µM | > 10 µM | > 10 µM | > 10 µM | > 10 µM | > 10 µM |  | > 10 µM | > 10 µM | > 10 µM | > 10 µM | > 10 µM | > 10 µM |
